Values quoted from earlier work as cited in patent US20030129242A1, “Sterile filtered nanoparticulate formulations of budesonide and beclomethasone having tyloxapol as a surface stabilizer” (priority 2002, published 2003).

CCCC1O[C@@H]2C[C@H]3C4CCC5=CC(=O)C=CC5(C)[C@H]4[C@@H](O)CC3(C)C2(C(=O)CO)O1 (mixture of isomers) [Budesonide, (RS)-11,16, 17,21-Tetrahydroxy-pregna-1,4-diene-3,20-dione cyclic 16,17-acetal with butraldehyde]
solubility in chloroform (chloroform): freely soluble
solubility in ethanol (ethanol): sparingly soluble
solubility in heptane (heptane): practically insoluble
solubility in water: practically insoluble

CC1(C)O[C@@H]2C[C@H]3[C@@H]4C[C@H](F)C5=CC(=O)C=C[C@]5(C)[C@H]4[C@@H](O)C[C@]3(C)[C@]2(C(=O)CO)O1 [Flunisolide, 6α-fluoro-11β, 16α, 17,21-tetrahydroxy-pregna-1,4-diene-3,20-dione cyclic-16,17-acetal with acetone]
solubility in water: practically insoluble
